According to US20050069907A1, “Methods for using double-mutant RNA polymerases with reduced discrimination between non-canonical and canonical nucleoside triphosphates” (priority 2002, published 2005):

Tests used:
poly(dI)·poly(dC) = assay: Relative activity on poly(dI)·poly(dC); type: biochemical
Protocol: Transcription reactions: Transcription reactions were carried out in 40 mM Tris-Cl pH 8.0, 15 mM MgCl2, and 5 mM DTT or 20 mM Manganese Citrate pH 8.0, 5 mM DTT at 37° C. Template, polymerase, and NTP concentrations were as indicated in the legends to the figures and tables. Relative activity determinations were made by taking 4 μl aliquots of reactions at 5, 10, and 20 minute time points and spotting on to DE81 filter paper. Unincorporated nucleotides were separated from incorporated nucleotides by washing the filter paper with 0.5 M KH2PO4 pH 7.0 and retained radioactive nucleotide was quantitated with a Molecular Dynamics phosphorimager. To evaluate rNTP/dNTP selectivity, reactions were run with 4 rNTPs and pT75 as template and α-P^32 rNTPs or α-P^32 dNTPs were used to label the transcripts. The relative rate of incorporation of an rNTP vs. its cognate dNTP was determined from the relative percentages of labeled rNTP vs. dNTP incorporated into DE81 retainable RNA at 5, 10, and 20 minute time points. Apparent miscoding frequencies were determined similarly, though in this instance the template was a single-stranded homopolymer and the reaction contained the complementary unlabeled rNTP, and complementary α-P^32 rNTP or one of the 3 non-complementary α-P^32 rNTPs. The relative percentages of labeled complementary vs. non-complementary rNTPs incorporated at 5, 10 and 20 minute time points gave an apparent miscoding rate. The rNTP/dNTP selectivity assay was used to test the following T7 RNAP mutants for effects on substrate discrimination: D537S, D537E, S539A, R5S1S, D552S, R627S, K631S, L637A, Y639S, Y639F, Y639A, G640A, F644A, G645A, Q649S, […], H811S, H811A, D812A, D812E, D812S, D812N, D879E+ΔF882+ΔA883, D879E+A881T+ΔA883, D879E+F884+A885, D879E+F882Y, D879E+ΔA883, D879E+F882W, D879E.
DNA and RNA synthesis on homopolymeric templates: T7 RNAP will synthesize poly(rG) RNAs on poly(dC) templates (Bonner, et al., 1994; Ikeda and Richardson 1987). The activity of the W.T. and mutant polymerases were measured on poly(dI)-poly(dC) with rGTP, dGTP, dGTP+rGMP (see, Table III).
Numbers give mean and range from 3 experiments. Templates were at 0.2 mg/ml, polymerases at 10^-8 M. Labeling NTPs were α-P^32 rGTP, α-P^32 dGTP, α-P^32 rATP, α-P^32 dATP, as appropriate. rNTPs or rNMPs at 0.5 mM; dNTPs at 1 mM.

Bgl II-cut pPK5 = assay: Run-off transcription with 2′-OMe- or 2′-azido-NTPs on Bgl II-cut pPK5; type: biochemical
Protocol: RNAPs were prepared as described (Brieba, L G, and Sousa, R. Biochemistry, 39: 919-923, 2000). Transcription reactions were carried out for 30 min. at room temperature in 40 mM Tris-Cl, pH 8.0, 6 mM MgCl2, 10 mM NaCl, 2 mM spermidine, with templates at 10^−7 M and RNAPs at 2×10^−7 M. All NTPs were used at 0.5 mM, and transcripts were labeled by inclusion of 1% v/v 800 Ci/mM […] in the reaction. Modified NTPs were from Trilink Biotechnologies. Reactions were stopped by addition of an equal volume of 90% formamide, 50 mM EDTA, 0.01% xylene cyanol, resolved by electrophoresis in 20% acrylamide, 1% bis-acrylamide, 1×TBE gels, and visualized on a Molecular Dynamics Phosphorimager.
The ability of the wild-type, Y639F and Y639F/H784A mutants to utilize 2′-OMe-UTP and 2′-OMe-CTP, and 2′-azido-UTP and 2′-azido-CTP in RNA synthesis was tested. On a Bgl II-cut pPK5 (Mentesanas, P. E., et al., “Characterization of Bacteriophage T7 RNA Polymerase Elongation Complexes,” J. Mol. Biol. 302:1049-1062, 2000) template in which CTP and UTP are first incorporated at +14 and +15, respectively, the wild-type enzyme can synthesize 34 nucleotide (nt) run-off transcripts in reactions in which UTP is replaced with 2′-OMe-UTP (FIG. 2a, lane 2) or in reactions in which CTP is replaced with 2′-OMe-CTP (FIG. 2a, lane 3). Relative to the reaction with 4 NTPs (FIG. 2a, lane 1), yields of run-off transcripts are reduced 6-fold and 21-fold in the 2′-OMe-UTP and 2′-OMe-CTP reactions, respectively. When both UTP and CTP are replaced with the corresponding 2′-OMe-NTPs, run-off transcription with the wild-type enzyme is undetectable (FIG. 2a, lane 4). Terminated transcripts are seen in these reactions at positions where 2′-OMe-UMP or 2′-OMe-CMP are incorporated (FIG. 2a, lanes 2-4). The Y639F mutation enhances utilization of the 2′-OMe-NTPs: relative to reactions with 4 NTPs (FIG. 2a, lane 5) runoff transcription with Y639F is reduced, respectively: 2-fold, 8-fold, and 55-fold in reactions with 2′-OMe-UTP, 2′-OMe-CTP, or both (FIG. 2a, lanes 6-8). With the Y639F/H784A double mutant the reduction in run-off transcript synthesis is <15% in reactions with 2′-OMe-UTP (FIG. 2a, lane 10), and only 3-fold and 6-fold in reactions with, respectively, 2′-OMe-CTP or both 2′-OMe-UTP and 2′-OMe-CTP (FIG. 2a, lanes 11, 12).
Identical experiments were carried out with 2′-azido-UTP or 2′-azido-CTP replacing UTP or CTP, respectively (FIG. 2b). With the wild-type enzyme, run-off transcription was reduced 15- and 50-fold in reactions with 2′-azido-UTP or 2′-azido-CTP, respectively (FIG. 2b; lanes 2, 3), and was undetectable in reactions with both 2′-azido-UTP and 2′-azido-CTP (FIG. 2b; lane 4). With Y639F, use of 2′-azido-UTP or 2′-azido-CTP reduced run-off transcription by 70% (FIG. 2b; lanes 6, 7) compared to reactions with 4 NTPs (FIG. 2b; lane 5), while use of both 2′-azido-UTP and 2′-azido-CTP reduced runoff transcription by 11-fold (FIG. 2b, lane 8). With Y639F/H784A use of a single azido-modified NTP reduced run-off transcription by only 40% (FIG. 2b; lanes 10, 11), while use of two 2′-azido-NTPs reduced it by 3-fold (FIG. 2b; lane 12).

[1] = rGTP, mean and range from 3 experiments
[2] = both 2′-azido-UTP and 2′-azido-CTP

W.T.: wild-type T7 RNA polymerase [reference compound]
Relative activity on poly(dI)·poly(dC) (poly(dI)·poly(dC); dGTP): 7.4 (5.4-12.5)
Relative activity on poly(dI)·poly(dC) (poly(dI)·poly(dC); dGTP + rGMP): 25 (20-27)
Relative activity on poly(dI)·poly(dC) (poly(dI)·poly(dC); [1]): 1000
Reduction of run-off transcript yield relative to 4 NTPs (Bgl II-cut pPK5; 2′-OMe-CTP replacing CTP): 21 fold
Reduction of run-off transcript yield relative to 4 NTPs (Bgl II-cut pPK5; 2′-OMe-UTP replacing UTP): 6 fold
Reduction of run-off transcription (Bgl II-cut pPK5; 2′-azido-CTP replacing CTP): 50 fold
Reduction of run-off transcription (Bgl II-cut pPK5; 2′-azido-UTP replacing UTP): 15 fold
Reduction of run-off transcript yield relative to 4 NTPs (Bgl II-cut pPK5; both 2′-OMe-UTP and 2′-OMe-CTP): undetectable
Reduction of run-off transcription (Bgl II-cut pPK5; [2]): undetectable

Y639F: T7 RNAP with wild-type tyrosine at position 639 substituted by phenylalanine
Relative activity on poly(dI)·poly(dC) (poly(dI)·poly(dC); dGTP): 964 (684-1257)
Relative activity on poly(dI)·poly(dC) (poly(dI)·poly(dC); dGTP + rGMP): 1070 (816-1457)
Relative activity on poly(dI)·poly(dC) (poly(dI)·poly(dC); [1]): 1000
Reduction of run-off transcript yield relative to 4 NTPs (Bgl II-cut pPK5; 2′-OMe-CTP replacing CTP): 8 fold
Reduction of run-off transcript yield relative to 4 NTPs (Bgl II-cut pPK5; 2′-OMe-UTP replacing UTP): 2 fold
Reduction of run-off transcript yield relative to 4 NTPs (Bgl II-cut pPK5; both 2′-OMe-UTP and 2′-OMe-CTP): 55 fold
Reduction of run-off transcription (Bgl II-cut pPK5; [2]): 11 fold
Reduction of run-off transcription (Bgl II-cut pPK5; single azido-modified NTP (2′-azido-UTP or 2′-azido-CTP)): 70%
